Calls of active or inactive are those of the source. The rule behind the calls is not given here.
Assays:
[1] = Antioxidant activity of compound in presence of Br-; type: functional
[2] = Antioxidant activity of compound in presence of Glutathione; type: functional
NCI-H226 [3] = test: Induction of apoptosis in human NCI-H226 cells assessed as viable cells at 5 uM incubated for 48 hrs by Annexin V-FITC/PI staining based flow cytometry (reference value: 93.4 %); type: functional; conditions: read-out: Activity
[4] = Toxicity in BALB/c mouse implanted with patient-derived Squamous carcinoma cell line assessed as change in body weight at 0.5 mg/kg, iv measured for 5 days; type: organism-based; conditions: in vivo, 120 h, time 5 day
NCI-H226 [5] = test: Induction of apoptosis in human NCI-H226 cells assessed as late apoptotic cells at 5 uM incubated for 48 hrs by Annexin V-FITC/PI staining based flow cytometry (reference value: 3.61 %); type: functional
[6] = Drug uptake in mouse 4T1 cells assessed as increase in red fluorescence intensity at 5 uM incubated for 30 mins by CY7 staining based microscopic analysis; type: ADME, cell-based; conditions: 4t1, 0.5 h
[7] = Antioxidant activity of compound in presence of Ca2+; type: functional
[8] = Drug accumulation in BALB/c mouse plasma xenografted with human NCI-H520 cells assessed as increase in fluorescence intensity at 0.5 mg/kg, iv measured at 96 to 120 hrs by imaging based analysis; type: ADME, organism-based; conditions: in vivo, time 96-120 hrs
[9] = Stability of compound in DMSO-H2O incubated for 1 hr by absorbance based analysis; type: physicochemical
[10] = Antioxidant activity of compound in presence of HCO3-; type: functional
[11] = Ratio of drug level in tumor to muscle of BALB/c mouse implanted with mouse 4T1 cells at 0.5 mg/kg, iv measured at 12 to 24 hrs; type: ADME, organism-based; conditions: in vivo, time 12-24 hrs
[12] = Drug accumulation in BALB/c mouse tumor implanted with mouse 4T1 cells assessed as increase in fluorescence intensity at 0.5 mg/kg, iv measured at 96 hrs by DAPI staining based fluorescence microscopic analysis; type: ADME, organism-based, Neoplasm; conditions: in vivo
[13] = Antioxidant activity of compound in presence of […]; type: functional
[14] = Antioxidant activity of compound in presence of Cl-; type: functional
[15] = Drug localization in mitochondria of human NCI-H226 cell by MitoTracker Red based NIR confocal microscopic analysis; type: ADME

## CCCN1/C(=C/C=C2\CCCC(/C=C/C3=[N+](Cc4ccc(C(=O)O)cc4)c4ccccc4C3(C)C)=C2Cl)C(C)(C)c2ccccc21.[Br-]
[1]
  Activity: Active
[2]
  Activity: Active
NCI-H226 [3]
  viability at 5 µM: 26.3%
[4]
  Activity: Non-toxic
NCI-H226 [5]
  Activity: 14%
[6]
  Drug uptake: Active
[7]
  Activity: Active
[8]
  Drug uptake: Active
[9]
  Stability: Stable
[10]
  Activity: Active
[11]
  Ratio: > 5
[12]
  Drug uptake: Active
[13]
  Activity: Active
[14]
  Activity: Active
[15]
  Drug uptake: Active

Source: ChEMBL document CHEMBL6134863, “Novel Mitochondria-Targeted Asymmetric Heptamethine Cyanine Dye for Cancer Targeted NIR Imaging and Potent Necrosis and Senescence Induction with Prolonged Retention” (J Med Chem, 2025)
